# Laboratory results published in US9963445B2, “Chemical compounds” (SYNGENTA PARTICIPATIONS AG, priority 2013, dated 2018).
# System: Alopecurus myosuroides
# Test: Post-emergence herbicidal activity, glasshouse pot test
# Format: in vivo
# Design: key: 0 = no damage to plant, 5 = total damage to plant
# Conditions: Application post-emergence, rate 1000 g/ha, evaluated after 13 days
# Outline: (§1)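 After 8 days of glasshouse growth at 24/16 °C day/night, potted plants receive a foliar spray of the formulated compound (0.5% Tween 20 in acetone/water). They are then watered twice daily under unchanged conditions, and phytotoxicity is scored 0–5 after 13 days.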
row,SMILES,ALOMY herbicidal damage score
1,COC1=C(C)C(O)N(c2ccc(NC(=O)C(C)(C)C)cn2)C1=O (stereo not drawn) [AI26],5
2,COC1=C(C)C(O)N(c2ccc(N)cn2)C1=O (stereo not drawn) [AI28],1
3,COC1=C(C)C(O)N(c2ccc([N+](=O)[O-])cn2)C1=O (stereo not drawn) [AI29],0
4,COC1=C(C)C(O)N(c2cc(C(C)C)c(C(=O)NC(C)(C)C#N)cn2)C1=O (stereo not drawn) [AI31],4
5,COC1=C(C)C(O)N(c2cc(C)c(Br)cn2)C1=O (stereo not drawn) [AI32],5
6,COC1=C(C)C(O)N(c2cc(C)c(C(=O)NC3(C#N)CC3)cn2)C1=O (stereo not drawn) [AI34],4
7,CCC(C)(C)NC(=O)c1cnc(N2C(=O)C(OC)=C(C)C2O)cc1C (stereo not drawn) [AI35],5

# System: Abutilon theophrasti
# Test: as above
# Format: in vivo
# Design: key: 0 = no damage to plant, 5 = total damage to plant
# Conditions: Application post-emergence, rate 1000 g/ha, evaluated after 13 days
# Outline: as §1
row,SMILES,ABUTH herbicidal damage score
1,COC1=C(C)C(O)N(c2ccc(NC(=O)C(C)(C)C)cn2)C1=O (stereo not drawn) [AI26],5
2,COC1=C(C)C(O)N(c2ccc(N)cn2)C1=O (stereo not drawn) [AI28],1
3,COC1=C(C)C(O)N(c2ccc([N+](=O)[O-])cn2)C1=O (stereo not drawn) [AI29],0
4,COC1=C(C)C(O)N(c2cc(C(C)C)c(C(=O)NC(C)(C)C#N)cn2)C1=O (stereo not drawn) [AI31],5
5,COC1=C(C)C(O)N(c2cc(C)c(Br)cn2)C1=O (stereo not drawn) [AI32],5
6,COC1=C(C)C(O)N(c2cc(C)c(C(=O)NC3(C#N)CC3)cn2)C1=O (stereo not drawn) [AI34],5
7,CCC(C)(C)NC(=O)c1cnc(N2C(=O)C(OC)=C(C)C2O)cc1C (stereo not drawn) [AI35],5

# System: zea mays
# Test: as above
# Format: in vivo
# Design: key: 0 = no damage to plant, 5 = total damage to plant
# Conditions: Application post-emergence, rate 1000 g/ha, evaluated after 13 days
# Outline: as §1
row,SMILES,ZEAMX herbicidal damage score
1,COC1=C(C)C(O)N(c2ccc(NC(=O)C(C)(C)C)cn2)C1=O (stereo not drawn) [AI26],5
2,COC1=C(C)C(O)N(c2ccc(N)cn2)C1=O (stereo not drawn) [AI28],1
3,COC1=C(C)C(O)N(c2ccc([N+](=O)[O-])cn2)C1=O (stereo not drawn) [AI29],1
4,COC1=C(C)C(O)N(c2cc(C(C)C)c(C(=O)NC(C)(C)C#N)cn2)C1=O (stereo not drawn) [AI31],2
5,COC1=C(C)C(O)N(c2cc(C)c(Br)cn2)C1=O (stereo not drawn) [AI32],2
6,COC1=C(C)C(O)N(c2cc(C)c(C(=O)NC3(C#N)CC3)cn2)C1=O (stereo not drawn) [AI34],3
7,CCC(C)(C)NC(=O)c1cnc(N2C(=O)C(OC)=C(C)C2O)cc1C (stereo not drawn) [AI35],3

# System: Setaria faberi
# Test: as above
# Format: in vivo
# Design: key: 0 = no damage to plant, 5 = total damage to plant
# Conditions: Application post-emergence, rate 1000 g/ha, evaluated after 13 days
# Outline: as §1
row,SMILES,SETFA herbicidal damage score
1,COC1=C(C)C(O)N(c2ccc(NC(=O)C(C)(C)C)cn2)C1=O (stereo not drawn) [AI26],5
2,COC1=C(C)C(O)N(c2ccc(N)cn2)C1=O (stereo not drawn) [AI28],1
3,COC1=C(C)C(O)N(c2ccc([N+](=O)[O-])cn2)C1=O (stereo not drawn) [AI29],0
4,COC1=C(C)C(O)N(c2cc(C(C)C)c(C(=O)NC(C)(C)C#N)cn2)C1=O (stereo not drawn) [AI31],5
5,COC1=C(C)C(O)N(c2cc(C)c(Br)cn2)C1=O (stereo not drawn) [AI32],5
6,COC1=C(C)C(O)N(c2cc(C)c(C(=O)NC3(C#N)CC3)cn2)C1=O (stereo not drawn) [AI34],5
7,CCC(C)(C)NC(=O)c1cnc(N2C(=O)C(OC)=C(C)C2O)cc1C (stereo not drawn) [AI35],5

# System: Echinochloa crus-galli
# Test: as above
# Format: in vivo
# Design: key: 0 = no damage to plant, 5 = total damage to plant
# Conditions: Application post-emergence, rate 1000 g/ha, evaluated after 13 days
# Outline: as §1
row,SMILES,ECHCG herbicidal damage score
1,COC1=C(C)C(O)N(c2ccc(NC(=O)C(C)(C)C)cn2)C1=O (stereo not drawn) [AI26],5
2,COC1=C(C)C(O)N(c2ccc(N)cn2)C1=O (stereo not drawn) [AI28],1
3,COC1=C(C)C(O)N(c2ccc([N+](=O)[O-])cn2)C1=O (stereo not drawn) [AI29],0
4,COC1=C(C)C(O)N(c2cc(C(C)C)c(C(=O)NC(C)(C)C#N)cn2)C1=O (stereo not drawn) [AI31],5
5,COC1=C(C)C(O)N(c2cc(C)c(Br)cn2)C1=O (stereo not drawn) [AI32],5
6,COC1=C(C)C(O)N(c2cc(C)c(C(=O)NC3(C#N)CC3)cn2)C1=O (stereo not drawn) [AI34],4
7,CCC(C)(C)NC(=O)c1cnc(N2C(=O)C(OC)=C(C)C2O)cc1C (stereo not drawn) [AI35],5

# System: Amaranthus retroflexus
# Test: as above
# Format: in vivo
# Design: key: 0 = no damage to plant, 5 = total damage to plant
# Conditions: Application post-emergence, rate 1000 g/ha, evaluated after 13 days
# Outline: as §1
row,SMILES,AMARE herbicidal damage score
1,COC1=C(C)C(O)N(c2ccc(NC(=O)C(C)(C)C)cn2)C1=O (stereo not drawn) [AI26],5
2,COC1=C(C)C(O)N(c2ccc(N)cn2)C1=O (stereo not drawn) [AI28],1
3,COC1=C(C)C(O)N(c2ccc([N+](=O)[O-])cn2)C1=O (stereo not drawn) [AI29],0
4,COC1=C(C)C(O)N(c2cc(C(C)C)c(C(=O)NC(C)(C)C#N)cn2)C1=O (stereo not drawn) [AI31],5
5,COC1=C(C)C(O)N(c2cc(C)c(Br)cn2)C1=O (stereo not drawn) [AI32],5
6,COC1=C(C)C(O)N(c2cc(C)c(C(=O)NC3(C#N)CC3)cn2)C1=O (stereo not drawn) [AI34],5
7,CCC(C)(C)NC(=O)c1cnc(N2C(=O)C(OC)=C(C)C2O)cc1C (stereo not drawn) [AI35],5

# System: Alopecurus myosuroides
# Test: Pre-emergence herbicidal activity, glasshouse pot test
# Format: in vivo
# Conditions: pre-emergence spray, rate 1000 g/ha, evaluated after 13 days, scale 0-5
# Outline: (§2)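 Test species were sown in pots and, after one day under controlled glasshouse conditions, treated with an aqueous spray of the active ingredient in acetone/water containing 0.5% Tween 20. Evaluation followed 13 days later, scoring plant damage from 0 (none) to 5 (total).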
row,SMILES,"ALOMY damage score, application pre-emergence"
1,COC1=C(C)C(O)N(c2ccc(NC(=O)C(C)(C)C)cn2)C1=O (stereo not drawn) [AI26],4
2,COC1=C(C)C(O)N(c2ccc(N)cn2)C1=O (stereo not drawn) [AI28],1
3,COC1=C(C)C(O)N(c2ccc([N+](=O)[O-])cn2)C1=O (stereo not drawn) [AI29],1
4,COC1=C(C)C(O)N(c2cc(C(C)C)c(C(=O)NC(C)(C)C#N)cn2)C1=O (stereo not drawn) [AI31],3
5,COC1=C(C)C(O)N(c2cc(C)c(Br)cn2)C1=O (stereo not drawn) [AI32],2
6,COC1=C(C)C(O)N(c2cc(C)c(C(=O)NC3(C#N)CC3)cn2)C1=O (stereo not drawn) [AI34],3
7,CCC(C)(C)NC(=O)c1cnc(N2C(=O)C(OC)=C(C)C2O)cc1C (stereo not drawn) [AI35],4

# System: Abutilon theophrasti
# Test: as above
# Format: in vivo
# Conditions: pre-emergence spray, rate 1000 g/ha, evaluated after 13 days, scale 0-5
# Outline: as §2
row,SMILES,"ABUTH damage score, application pre-emergence"
1,COC1=C(C)C(O)N(c2ccc(NC(=O)C(C)(C)C)cn2)C1=O (stereo not drawn) [AI26],5
2,COC1=C(C)C(O)N(c2ccc(N)cn2)C1=O (stereo not drawn) [AI28],2
3,COC1=C(C)C(O)N(c2ccc([N+](=O)[O-])cn2)C1=O (stereo not drawn) [AI29],0
4,COC1=C(C)C(O)N(c2cc(C(C)C)c(C(=O)NC(C)(C)C#N)cn2)C1=O (stereo not drawn) [AI31],2
5,COC1=C(C)C(O)N(c2cc(C)c(Br)cn2)C1=O (stereo not drawn) [AI32],0
6,COC1=C(C)C(O)N(c2cc(C)c(C(=O)NC3(C#N)CC3)cn2)C1=O (stereo not drawn) [AI34],1
7,CCC(C)(C)NC(=O)c1cnc(N2C(=O)C(OC)=C(C)C2O)cc1C (stereo not drawn) [AI35],5

# System: zea mays
# Test: as above
# Format: in vivo
# Conditions: pre-emergence spray, rate 1000 g/ha, evaluated after 13 days, scale 0-5
# Outline: as §2
row,SMILES,"ZEAMX damage score, application pre-emergence"
1,COC1=C(C)C(O)N(c2ccc(NC(=O)C(C)(C)C)cn2)C1=O (stereo not drawn) [AI26],2
2,COC1=C(C)C(O)N(c2ccc(N)cn2)C1=O (stereo not drawn) [AI28],1
3,COC1=C(C)C(O)N(c2ccc([N+](=O)[O-])cn2)C1=O (stereo not drawn) [AI29],0
4,COC1=C(C)C(O)N(c2cc(C(C)C)c(C(=O)NC(C)(C)C#N)cn2)C1=O (stereo not drawn) [AI31],2
5,COC1=C(C)C(O)N(c2cc(C)c(Br)cn2)C1=O (stereo not drawn) [AI32],1
6,COC1=C(C)C(O)N(c2cc(C)c(C(=O)NC3(C#N)CC3)cn2)C1=O (stereo not drawn) [AI34],0
7,CCC(C)(C)NC(=O)c1cnc(N2C(=O)C(OC)=C(C)C2O)cc1C (stereo not drawn) [AI35],2

# System: Setaria faberi
# Test: as above
# Format: in vivo
# Conditions: pre-emergence spray, rate 1000 g/ha, evaluated after 13 days, scale 0-5
# Outline: as §2
row,SMILES,"SETFA damage score, application pre-emergence"
1,COC1=C(C)C(O)N(c2ccc(NC(=O)C(C)(C)C)cn2)C1=O (stereo not drawn) [AI26],5
2,COC1=C(C)C(O)N(c2ccc(N)cn2)C1=O (stereo not drawn) [AI28],1
3,COC1=C(C)C(O)N(c2ccc([N+](=O)[O-])cn2)C1=O (stereo not drawn) [AI29],1
4,COC1=C(C)C(O)N(c2cc(C(C)C)c(C(=O)NC(C)(C)C#N)cn2)C1=O (stereo not drawn) [AI31],2
5,COC1=C(C)C(O)N(c2cc(C)c(Br)cn2)C1=O (stereo not drawn) [AI32],2
6,COC1=C(C)C(O)N(c2cc(C)c(C(=O)NC3(C#N)CC3)cn2)C1=O (stereo not drawn) [AI34],3
7,CCC(C)(C)NC(=O)c1cnc(N2C(=O)C(OC)=C(C)C2O)cc1C (stereo not drawn) [AI35],5

# System: Echinochloa crus-galli
# Test: as above
# Format: in vivo
# Conditions: pre-emergence spray, rate 1000 g/ha, evaluated after 13 days, scale 0-5
# Outline: as §2
row,SMILES,"ECHCG damage score, application pre-emergence"
1,COC1=C(C)C(O)N(c2ccc(NC(=O)C(C)(C)C)cn2)C1=O (stereo not drawn) [AI26],5
2,COC1=C(C)C(O)N(c2ccc(N)cn2)C1=O (stereo not drawn) [AI28],0
3,COC1=C(C)C(O)N(c2ccc([N+](=O)[O-])cn2)C1=O (stereo not drawn) [AI29],0
4,COC1=C(C)C(O)N(c2cc(C(C)C)c(C(=O)NC(C)(C)C#N)cn2)C1=O (stereo not drawn) [AI31],3
5,COC1=C(C)C(O)N(c2cc(C)c(Br)cn2)C1=O (stereo not drawn) [AI32],4
6,COC1=C(C)C(O)N(c2cc(C)c(C(=O)NC3(C#N)CC3)cn2)C1=O (stereo not drawn) [AI34],4
7,CCC(C)(C)NC(=O)c1cnc(N2C(=O)C(OC)=C(C)C2O)cc1C (stereo not drawn) [AI35],5

# System: Amaranthus retroflexus
# Test: as above
# Format: in vivo
# Conditions: pre-emergence spray, rate 1000 g/ha, evaluated after 13 days, scale 0-5
# Outline: as §2
row,SMILES,"AMARE damage score, application pre-emergence"
1,COC1=C(C)C(O)N(c2ccc(NC(=O)C(C)(C)C)cn2)C1=O (stereo not drawn) [AI26],5
2,COC1=C(C)C(O)N(c2ccc(N)cn2)C1=O (stereo not drawn) [AI28],1
3,COC1=C(C)C(O)N(c2ccc([N+](=O)[O-])cn2)C1=O (stereo not drawn) [AI29],2
4,COC1=C(C)C(O)N(c2cc(C(C)C)c(C(=O)NC(C)(C)C#N)cn2)C1=O (stereo not drawn) [AI31],5
5,COC1=C(C)C(O)N(c2cc(C)c(Br)cn2)C1=O (stereo not drawn) [AI32],5
6,COC1=C(C)C(O)N(c2cc(C)c(C(=O)NC3(C#N)CC3)cn2)C1=O (stereo not drawn) [AI34],4
7,CCC(C)(C)NC(=O)c1cnc(N2C(=O)C(OC)=C(C)C2O)cc1C (stereo not drawn) [AI35],5
